According to patent publication US5219884A, “Immunosuppressant” (Taito Co., Ltd., priority 1990, dated 1993):
In brackets after ≈: the same amount, converted by molar mass. Like-named read-outs stand apart in the source and are kept apart here.

Tests used:
[1] = test system: human allogenic MLR (peripheral blood lymphocytes); assay: human allogenic MLR-suppressive activity; assay type: cell-based; conditions: for inhibition at 0.0001 µg/mL / inhibition at 0.001 µg/mL / inhibition at 0.01 µg/mL / inhibition at 0.1 µg/mL / inhibition at 1 µg/mL / inhibition at 10 µg/mL / inhibition at 10 pg/mL: Homo sapiens, read-out: Suppression; for inhibition at 0.0001 µg/mL / inhibition at 0.001 µg/mL / inhibition at 0.01 µg/mL / inhibition at 0.1 µg/mL / inhibition at 1 µg/mL / inhibition at 10 µg/mL / inhibition at 10 pg/mL / IC50: Lymphocyte; for IC50: human allogenic MLR, read-out: 50%-inhibition concentration (IC50)
Procedure: The human allogenic MLR-suppressive activity was assayed as follows:
Human peripheral blood lymphocytes obtained by Ficoll-Paque density gradient centrifugation of normal human peripheral blood were suspended in the RPMI1640 medium supplemented with 10% FCS, placed in plastic dishes, and incubated at 37° C. in an atmosphere of 5% carbon dioxide for 2 hours. After termination of incubation, the supernatant after gentle pipetting was harvested and centrifuged (1000 rpm, for 5 minutes) to obtain plastic-nonadherent cells. The plastic-nonadherent cells were allowed to pass through a nylon-wool column to give nylon-nonadherent cells, and the concentration of the cell suspension was adjusted to 4×10^6 cells/ml by using the RPMI1640 culture medium supplemented with 10% FCS, and used as the responder cell suspension.
The plastic-adherent cells were removed from the plastic dish by vigorous pipetting after addition of phosphate buffered saline supplemented with 5% FCS and 0.02% disodium ethylenediamine-tetraacetic acid (EDTA). The plastic-adherent cells were treated with 40 μg/ml of mitomycin C at 37° C. for 60 minutes, washed three times, and suspended to the concentration of 4×10^6 cells/ml in the RPMI1640 culture medium supplemented with 10% FCS. The resultant suspension was used as the stimulator cell suspension. Fifty μl of the responder cell suspension from the donor A or C was mixed with 50 μl of the stimulator cell suspension from the donor B or D, to which 100 μl of the test substance was added, and cultured at 37° C. in the an atmosphere 5% carbon dioxide for 5 days.
After termination of the culture, 1.0 μCi/well of ^3 H-thymidine was added, and after 18 hours of culture, the cells were harvested by a cell-harvester. The radioactivity incorporated into the cells was measured by a liquid scintillation counter as the index of blastogenic response of lymphocytes in human allogenic MLR. The suppression of human allogenic MLR was evaluated by calculating the percent suppression by the following formula. [formula]

[2] = test system: IL2-dependent mouse cell line CTLL-2; assay: suppression of IL-2 induced 3H-thymidine incorporation of CTLL-2; assay type: cell-based; conditions: for inhibition at 0.01 µg/mL / inhibition at 0.1 µg/mL / inhibition at 1 µg/mL / inhibition at 10 µg/mL: Mus musculus; for inhibition at 0.01 µg/mL / inhibition at 0.1 µg/mL / inhibition at 10 µg/mL: read-out: Suppression
Procedure: IL2-dependent mouse cell line CTLL-2 cells were suspended in the RPMI1640 culture medium supplemented with 30% FCS to a concentration of 2×10^5 cells/ml. The suspension (50 μl) and 50 μl of concanavalin A-stimulated rat spleen cell culture supernatants containing IL2 were added to each well of 96-well microculture plates in which 100 μl of the test substance had been placed. After culturing at 37° C. in an atmosphere of 5% carbon dioxide for 20, 44, or 68 hours, 0.5 μCi/well of ^3 H-thymidine was added, and cultured for 4 hours under the same conditions. After termination of the culture, the cells were harvested by a cell harvester, and the radioactivity incorporated into the cells was measured by a liquid scintillation counter.

[3] = body weight, wet weight of thymus and spleen, number of spleen cells in SRBC-immunized mice; assay type: in vivo, mouse; conditions: Table 12B; 10 mg/kg/day
Procedure: (§1) Males 5- to 7-week-old BALB/c mice were immunized with sheep red blood cells (SRBC), and the spleen was resected three or four days later. By counting the plaque forming cells (PFC), suppressive effect on the production of the anti-sheep red blood cell antibody was examined as follows.
(§2) BALB/c mice were immunized with SRBC (1×10^7 cells/mouse, intravenous administration), and ISP-I in the Example 1 was administered intraperitoneally for 4 consecutive days from the day of immunization. Four days after immunization (the next day of the final administration), the spleen was resected and the anti-sheep red blood cell antibody-producing cells were determined by the direct plaque method. At the same time the body weight of the mouse, wet weight of the thymus and the spleen, and numbers of spleen cells were also determined.
(§3) BALB/c mice were immunized with SRBC (5×10^7 cells/mouse, intravenous administration), and the compound in the Example 5 was administered intraperitoneally for 4 consecutive days from the day of immunization. Four days after immunization (the next day of the final administration), the spleen was resected, and the anti-sheep red blood cell antibody-producing cells were determined by the direct plaque method. At the same time, the body weight of the mouse, wet weight of the thymus and the spleen, and numbers of spleen cells were also determined.

[4] = test system: anti-sheep red blood cell antibody production in BALB/c mice; assay: suppression of mouse anti-sheep red blood cell antibody production (PFC); assay type: in vivo; conditions: Table 12B; 10 mg/kg/day
Procedure: as §1, §2, §3

[5] = 72 hrs, second run (control 30168 cpm), 0.1 μg/ml
[6] = 72 hrs, second run (control 30168 cpm), 1 μg/ml
[7] = CTLL-2, 72 hrs, second run (control 30168 cpm), 0.1 μg/ml
[8] = CTLL-2, 72 hrs, second run (control 30168 cpm), 1 μg/ml

CCCCCCC(=O)CCCCCC/C=C/CC1OC(=O)C(N)(CO)C1O (stereo not shown) [Example 4]
inhibition at 0.0001 µg/mL ([1]; donor A/donor B, 0.0001 μg/ml): 32.3%
inhibition at 0.001 µg/mL ([1]; donor A/donor B, 0.001 μg/ml): 47.4%
inhibition at 0.01 µg/mL ([1]; donor A/donor B, 0.01 μg/ml): 65.8%
inhibition at 0.1 µg/mL ([1]; donor A/donor B, 0.1 μg/ml): 89.2%
inhibition at 1 µg/mL ([1]; donor A/donor B, 1 μg/ml): 83.5%
inhibition at 10 µg/mL ([1]; donor A/donor B, 10 μg/ml): 86.4%
inhibition at 10 pg/mL ([1]; donor C/donor D, 0.00001 μg/ml): 55.8%
inhibition at 0.0001 µg/mL ([1]; donor C/donor D, 0.0001 μg/ml): 61.9%
inhibition at 0.001 µg/mL ([1]; donor C/donor D, 0.001 μg/ml): 58.5%
inhibition at 0.01 µg/mL ([1]; donor C/donor D, 0.01 μg/ml): 80.8%
inhibition at 0.1 µg/mL ([1]; donor C/donor D, 0.1 μg/ml): 84.9%
inhibition at 1 µg/mL ([1]; donor C/donor D, 1 μg/ml): 79.2%
IC50 [1]: 0.79 ng/mL (≈ 2.06 nM)
3H-thymidine uptake ([1]; donor A/donor B, 0.0001 μg/ml): 16963 cpm
3H-thymidine uptake ([1]; donor A/donor B, 0.001 μg/ml): 13715 cpm
3H-thymidine uptake ([1]; donor A/donor B, 0.01 μg/ml): 9754 cpm
3H-thymidine uptake ([1]; donor A/donor B, 0.1 μg/ml): 4734 cpm
3H-thymidine uptake ([1]; donor A/donor B, 1 μg/ml): 5954 cpm
3H-thymidine uptake ([1]; donor A/donor B, 10 μg/ml): 5332 cpm
3H-thymidine uptake ([1]; donor C/donor D, 0.00001 μg/ml): 7746 cpm
3H-thymidine uptake ([1]; donor C/donor D, 0.0001 μg/ml): 6700 cpm
3H-thymidine uptake ([1]; donor C/donor D, 0.001 μg/ml): 7278 cpm
3H-thymidine uptake ([1]; donor C/donor D, 0.01 μg/ml): 3417 cpm
3H-thymidine uptake ([1]; donor C/donor D, 0.1 μg/ml): 2708 cpm
3H-thymidine uptake ([1]; donor C/donor D, 1 μg/ml): 3703 cpm
3H-thymidine uptake ([2]; 24 hrs, 0.01 μg/ml): 5907 cpm
3H-thymidine uptake ([2]; 24 hrs, 0.1 μg/ml): 4240 cpm
3H-thymidine uptake ([2]; 24 hrs, 1 μg/ml): 5400 cpm
3H-thymidine uptake ([2]; 24 hrs, 10 μg/ml): 2602 cpm
3H-thymidine uptake ([2]; 48 hrs, 0.01 μg/ml): 21930 cpm
3H-thymidine uptake ([2]; 48 hrs, 0.1 μg/ml): 9202 cpm
3H-thymidine uptake ([2]; 48 hrs, 1 μg/ml): 7202 cpm
3H-thymidine uptake ([2]; 48 hrs, 10 μg/ml): 7465 cpm
3H-thymidine uptake ([2]; 72 hrs, 0.01 μg/ml, control 78515 cpm): 69355 cpm
3H-thymidine uptake ([2]; 72 hrs, 0.1 μg/ml, control 78515 cpm): 16705 cpm
3H-thymidine uptake ([2]; 72 hrs, 1 μg/ml, control 78515 cpm): 4088 cpm
3H-thymidine uptake ([2]; 72 hrs, 10 μg/ml, control 78515 cpm): 11806 cpm
inhibition at 0.01 µg/mL ([2]; CTLL-2, 48 h): 13.3%
inhibition at 0.01 µg/mL ([2]; CTLL-2, 24 hrs, 0.01 μg/ml): 11.8%
inhibition at 0.1 µg/mL ([2]; CTLL-2, 24 hrs, 0.1 μg/ml): 37.5%
inhibition at 1 µg/mL ([2]; CTLL-2, 24 hrs, 1 μg/ml): 19.6%
inhibition at 10 µg/mL ([2]; CTLL-2, 24 hrs, 10 μg/ml): 62.7%
inhibition at 0.1 µg/mL ([2]; CTLL-2, 48 hrs, 0.1 μg/ml): 64.6%
inhibition at 1 µg/mL ([2]; CTLL-2, 48 hrs, 1 μg/ml): 72.7%
inhibition at 10 µg/mL ([2]; CTLL-2, 48 hrs, 10 μg/ml): 71.6%
inhibition at 0.01 µg/mL ([2]; CTLL-2, 72 hrs, 0.01 μg/ml, control 78515 cpm): 11.8%
inhibition at 0.1 µg/mL ([2]; CTLL-2, 72 hrs, 0.1 μg/ml, control 78515 cpm): 79.4%
inhibition at 1 µg/mL ([2]; CTLL-2, 72 hrs, 1 μg/ml, control 78515 cpm): 95.6%
inhibition at 10 µg/mL ([2]; CTLL-2, 72 hrs, 10 μg/ml, control 78515 cpm): 85.7%

CCCCCCC(O)CCCCCC/C=C/CC(O)C(O)C(N)(CO)C(=O)O (stereo not shown) [Example 6]
inhibition at 0.0001 µg/mL ([1]; donor A/donor B, 0.0001 μg/ml): 45.2%
inhibition at 0.001 µg/mL ([1]; donor A/donor B, 0.001 μg/ml): 56.2%
inhibition at 0.01 µg/mL ([1]; donor A/donor B, 0.01 μg/ml): 81.7%
inhibition at 0.1 µg/mL ([1]; donor A/donor B, 0.1 μg/ml): 81.3%
inhibition at 1 µg/mL ([1]; donor A/donor B, 1 μg/ml): 83.9%
inhibition at 10 µg/mL ([1]; donor A/donor B, 10 μg/ml): 90%
inhibition at 0.0001 µg/mL ([1]; donor C/donor D, 0.0001 μg/ml): 14%
inhibition at 0.001 µg/mL ([1]; donor C/donor D, 0.001 μg/ml): 51.7%
inhibition at 0.01 µg/mL ([1]; donor C/donor D, 0.01 μg/ml): 77%
inhibition at 0.1 µg/mL ([1]; donor C/donor D, 0.1 μg/ml): 80.3%
inhibition at 1 µg/mL ([1]; donor C/donor D, 1 μg/ml): 86.4%
inhibition at 10 pg/mL [1]: 6.8%
IC50 [1]: 0.22 ng/mL (≈ 0.545 nM)
3H-thymidine uptake ([1]; donor A/donor B, 0.0001 μg/ml): 14191 cpm
3H-thymidine uptake ([1]; donor A/donor B, 0.001 μg/ml): 11753 cpm
3H-thymidine uptake ([1]; donor A/donor B, 0.01 μg/ml): 6335 cpm
3H-thymidine uptake ([1]; donor A/donor B, 0.1 μg/ml): 6418 cpm
3H-thymidine uptake ([1]; donor A/donor B, 1 μg/ml): 5877 cpm
3H-thymidine uptake ([1]; donor A/donor B, 10 μg/ml): 4564 cpm
3H-thymidine uptake ([1]; donor C/donor D, 0.00001 μg/ml): 16241 cpm
3H-thymidine uptake ([1]; donor C/donor D, 0.0001 μg/ml): 14996 cpm
3H-thymidine uptake ([1]; donor C/donor D, 0.001 μg/ml): 8468 cpm
3H-thymidine uptake ([1]; donor C/donor D, 0.01 μg/ml): 4082 cpm
3H-thymidine uptake ([1]; donor C/donor D, 0.1 μg/ml): 3501 cpm
3H-thymidine uptake ([1]; donor C/donor D, 1 μg/ml): 2448 cpm
3H-thymidine uptake [2, 5]: 7237 cpm
3H-thymidine uptake [2, 6]: 1346 cpm
inhibition at 0.1 µg/mL [2, 7]: 76.2%
inhibition at 1 µg/mL [2, 8]: 95.7%

CCCCCCC(O)CCCCCC/C=C/CC1OC(=O)C(N)(CO)C1O (stereo not shown) [Example 8]
Body weight [3]: 18 ± 1 g
Number of spleen cells [3]: 1.3 ± 0.2 × 10^8 cell
Wet weight spleen [3]: 103 ± 30 mg
Wet weight thymus [3]: 25 ± 9 mg
3H-thymidine uptake [2, 5]: 7262 cpm
3H-thymidine uptake [2, 6]: 1591 cpm
inhibition at 0.1 µg/mL [2, 7]: 76.1%
inhibition at 1 µg/mL [2, 8]: 94.9%
Number of PFC per 1 × 10^7 cell [4]: 6.7 ± 1.2 × 10^3 /1 × 10^7 cell
Number of PFC per spleen [4]: 8.5 ± 1.9 × 10^4 /spleen
